Columns and labels:
Non-Diabetic Rats = assay: Effect on serum glucose, body weight and HbA1c in nondiabetic rats, 4 weeks treatment; type: in vivo, rat; settings: 30 mg/kg/day p.o.; for Glucose: serum glucose
Method: (§1) Effect of Nateglinide alone and Formula I (1-2) on Serum Glucose, Body Weights and HbAlc in Non-Diabetic and Diabetic Rats:
(§2) Methods: Animals were divided in to following groups, each group containing 6 animals and the treatment period for whole study was 4 weeks.
Group 1: Nondiabetic (ND) control, received CMC as vehicle (1 ml/kg/day, p.o, NDCON).
Group 2: Nondiabetic group treated with Nateglinide (NAT) (30 mg/kg/day, p.o, ND-NAT).
Group 3: Nondiabetic group treated with Formula I (1-2) (30 mg/kg/day, p.o)
(§3) Effect of Nateglinide (30 mg/kg/day, p.o) and Formula I (30 mg/kg/day, p.o) on Changes in Body Weight, Serum Glucose and HbAlc Level in Nondiabetic and Diabetic Rats.

Diabetic Rats = assay: Effect on serum glucose, body weight and HbA1c in STZ/nicotinamide-induced type 2 diabetic rats, 4 weeks treatment; type: in vivo, rat; settings: diabetic rats (STZ 65 mg/kg + NIC 150 mg/kg i.p.), 30 mg/kg/day; for Glucose: serum glucose
Method: as §1
Type 2 Diabetes was induced in overnight fasted rats by a single intraperitoneal injection of 65 mg/kg Streptozotocin (STZ), 15 min after the i.p administration of 150 mg/kg of Nicotinamide (NIC). After 7 days following STZ and NIC administration, blood was collected from tail vein and serum samples were analyzed for blood glucose. Animals showing fasting blood glucose higher than 300 mg/dl were considered as diabetic and were used for the study.
as §2
Group 4: Diabetic control, single injection of STZ (65 mg/kg, i.p) and NIC (150 mg/kg, i.p, DB-CON).
Group 5: Diabetic rats (DB) treated with NAT (30 mg/kg/day, DB-NAT).
Group 6: Diabetic rats treated with Formula I (1-2) (30 mg/kg/day, p.o)
as §3

Row | SMILES | (%, HbA1c) (Non-Diabetic Rats) | Body weight (gm) (Non-Diabetic Rats) | Glucose (Non-Diabetic Rats) [mg/dL] | (%, HbA1c) (Diabetic Rats) | Body weight (gm) (Diabetic Rats) | Glucose (Diabetic Rats) [mg/dL]
1 | CC(C)[C@H]1CC[C@H](C(=O)N[C@H](Cc2ccccc2)C(=O)O)CC1 [NAT, Nateglinide] | 5.04 +/− 0.30% | 224.0 +/− 7.23 gm | 70.21 ± 5.6 | 6.78 +/− 0.98% | 219.8 +/− 50.28 gm | 170.7 ± 13.21
2 | CC(C)[C@H]1CCC[C@H](C(=O)N[C@H](Cc2ccccc2)OC(=O)OC(=O)CCCC[C@]2(C)CCSS2)C1 [FORMULA I] | 4.21 +/− 0.67% | 265.1 +/− 9.3 gm | 77.87 ± 9.67 | 4.01 +/− 0.72% |  | 99.1 ± 12.1

From patent US20160122313A1, “COMPOSITIONS AND METHODS FOR THE TREATMENT OF DIABETES” (priority 2014, published 2016)
